The text below walks through data of patent US20250122192A1, “5-PYRIMIDINECARBOXAMIDE DERIVATIVES AND METHODS OF USING THE SAME” (Rgenta Therapeutics, Inc., priority 2021, published 2025).

Broadly, the IC50 is the concentration needed to halve the response being measured.

Structures can show the parent of a compound that is named as a salt. Where only a bound is given, the exact number is not on record here.

The first experiment has as its system PMS1. Briefly: Mini-gene reporter assay-PMS1. Format: cell-based. To be noted: Homo sapiens, HEK293, PMS1 mini-gene firefly luciferase reporter transiently transfected into HEK293 cells; read-out: PMS1 IC50. Summed up:
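Compound dilution series in duplicate added to transiently transfected HEK293 reporter cells, then incubated; EC50 from Levenberg-Marquardt fit of luminescence. The reporter joins the alternatively skipped exon, its neighbouring introns and exons to firefly luciferase, so induced inclusion gives more signal.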
`CCOc1nc(N2CCC(CNC(C)C)CC2)ncc1C(=O)Nc1cn2cc(C)nc2c(C)n1` [Compound 58]: the IC50 lay in the range of 500 to 1000 nM.

Take `CCOc1nc(N2CC(NC)C2)ncc1C(=O)Nc1cc(F)c2nc(C)cn2c1` [Compound 242]: the IC50 is < 500 nM.

As for `CCOc1nc(N2CC(C3CCNCC3)C2)ncc1C(=O)Nc1cc(F)c2nc(C)cn2c1` [Compound 141], the IC50 lay in the range of 500 to 1000 nM.

Take `CCOc1nc(N2CC[C@@H](NC)C2)ncc1C(=O)Nc1ccc2nc(C)cn2c1` [Compound 289, (R)-4-ethoxy-2-(3-(methylamino)pyrrolidin-1-yl)-N-(2-methylimidazo[1,2-a]pyridin-6-yl)pyrimidine-5-carboxamide formate]: the IC50 lay in the range of 1000 to 3000 nM.

Consider `CCOc1nc(N(C)C2CCNCC2)ncc1C(=O)Nc1cn2cc(C)nc2c(C)n1` [Compound 57], for which the IC50 was < 500 nM.

`COc1nc(N(C)C2CCNCC2)ncc1C(=O)Nc1cn2cc(C)nc2c(C)n1` [Compound 253, N-(2,8-dimethylimidazo[1,2-a]pyrazin-6-yl)-4-methoxy-2-(methyl(piperidin-4-yl)amino) pyrimidine-5-carboxamide formate]: the IC50 was < 500 nM.

In the case of `COc1nc(N(C)C2CCNCC2)ncc1C(=O)Nc1cn2cc(C)nc2cn1` [Compound 257, 4-methoxy-2-(methyl(piperidin-4-yl)amino)-N-(2-methylimidazo[1,2-a]pyrazin-6-yl)pyrimidine-5-carboxamide formate], the IC50 was in the range of 500 to 1000 nM.

Take `CCOc1nc(N2CCC3(CNC3)C2)ncc1C(=O)Nc1cc(F)c2nc(C)cn2c1` [Compound 220]: the IC50 was < 500 nM.

With `CCOc1nc(N2CCN(C)CC2)ncc1C(=O)Nc1cc(F)c2nc(C)cn2c1` [Compound 6, 4-ethoxy-N-{8-fluoro-2-methylimidazo[1,2-a]pyridin-6-yl}-2-(4-methylpiperazin-1-yl)pyrimidine-5-carboxamide], the IC50 was in the range of 1000 to 3000 nM.

As to `CCOc1nc(N(C)C2CCCCNC2)ncc1C(=O)Nc1cc(F)c2nc(C)cn2c1` (centres unmarked) [Compound 138], the IC50 is 1000 to 3000 nM.

Consider `CCOc1nc(N2CCC3(CC2)CN(C)C3)ncc1C(=O)Nc1cc(F)c2nc(C)cn2c1` [Compound 303, 4-ethoxy-N-(8-fluoro-2-methylimidazo[1,2-a]pyridin-6-yl)-2-(2-methyl-2,7-diazaspiro[3.5]nonan-7-yl)pyrimidine-5-carboxamide], for which the IC50 lay within 500 to 1000 nM.

For `CCOc1nc(N2CCN[C@@H](C(C)C)C2)ncc1C(=O)Nc1cc(F)c2nc(C)cn2c1` [Compound 226], the IC50 is < 500 nM.

With `CCOc1nc(N2C[C@@H]3C[C@H]2CN3)ncc1C(=O)Nc1cc(F)c2nc(C)cn2c1` [Compound 233], the IC50 lay within 500 to 1000 nM.

As for `CCOc1nc(N2CCC(C3NCC34CCC4)CC2)ncc1C(=O)Nc1cc(F)c2nc(C)cn2c1` (centres unmarked) [Compound 133], the IC50 was 500 to 1000 nM.

Turning to `CCOc1nc(N2CCNC(CC)C2)ncc1C(=O)Nc1cn2cc(C)nc2c(C)n1` (centres unmarked) [Compound 63], the IC50 lay in the range of 500 to 1000 nM.

In the case of `CCNC1CCN(c2ncc(C(=O)Nc3cc(F)c4nc(C)cn4c3)c(OCC)n2)CC1` [Compound 214], the IC50 was < 500 nM.

On to `CCOc1nc(N2C3CCC2CC(NC)C3)ncc1C(=O)Nc1cc(F)c2nc(C)cn2c1` (centres unmarked) [Compound 157], for which the half-inhibitory concentration (IC50) was < 500 nM.

For the molecule `CCOc1nc(N2C[C@H]3CNCC[C@H]32)ncc1C(=O)Nc1cc(F)c2nc(C)cn2c1` (racemic) [Compound 245], the IC50 was < 500 nM.

For `CCOc1nc(N2CC3C4CCC(NC4)C3C2)ncc1C(=O)Nc1cn2cc(C)nc2c(C)n1` (centres unmarked) [Compound 44], the IC50 fell in the range of 1000 to 3000 nM.

With `CCOc1nc(N2CCC(NC)C2)ncc1C(=O)Nc1ccc2nc(C)cn2c1` (centres unmarked) [Compound 274, 4-ethoxy-2-(3-(methylamino)pyrrolidin-1-yl)-N-(2-methylimidazo[1,2-a]pyridin-6-yl)pyrimidine-5-carboxamide], the IC50 is > 3000 nM.

On to `CCOc1nc(N2CC3(CC(NC(C)C)CO3)C2)ncc1C(=O)Nc1cc(F)c2nc(C)cn2c1` (centres unmarked) [Compound 248], for which the IC50 is < 500 nM.

As to `CCOc1nc(N2CC[C@@H]3CNC[C@@H]32)ncc1C(=O)Nc1cn2cc(C)nc2c(C)n1` (racemic) [Compound 60], the IC50 lay within 500 to 1000 nM.

With `CCOc1nc(N2C3CCNCC2CC3)ncc1C(=O)Nc1cc(F)c2nc(C)cn2c1` (centres unmarked) [Compound 175], the IC50 is > 3000 nM.

In the case of `CCOc1nc(N2CCN[C@H](C)C2)ncc1C(=O)Nc1cc(F)c2nn(C)cc2c1` [Compound 264, (R)-4-ethoxy-N-(7-fluoro-2-methyl-2H-indazol-5-yl)-2-(3-methylpiperazin-1-yl)pyrimidine-5-carboxamide formic acid], the concentration for half-maximal inhibition (IC50) was in the range of 1000 to 3000 nM.

In the case of `CCOc1nc(N2CC(CO)C3(CNC3)C2)ncc1C(=O)Nc1cc(F)c2nc(C)cn2c1` (centres unmarked) [Compound 165], the IC50 lay within 1000 to 3000 nM.

For `CCOc1nc(NC2CCNCC2)ncc1C(=O)Nc1cn2cc(C)nc2cn1` [Compound 268, 4-ethoxy-N-(2-methylimidazo[1,2-a]pyrazin-6-yl)-2-(piperidin-4-ylamino) pyrimidine-5-carboxamide formate], the IC50 was in the range of 1000 to 3000 nM.

Consider `CCOc1nc(N2CC[C@@H](NC)C2)ncc1C(=O)Nc1ccc2nc(C)cn2n1` [Compound 317], for which the IC50 is > 3000 nM.

Turning to `CCOc1nc(N2CCC3(CCNCC3)C2)ncc1C(=O)Nc1cn2cc(C)nc2c(C)n1` [Compound 88], the IC50 was < 500 nM.

Turning to `CCOc1nc(N2CCC(NC)C2)ncc1C(=O)Nc1cnc2nc(C)cn2c1` (centres unmarked) [Compound 287, 4-ethoxy-2-(3-(methylamino)pyrrolidin-1-yl)-N-(2-methylimidazo[1,2-a]pyrimidin-6-yl)pyrimidine-5-carboxamide fomate], the 50% inhibitory concentration (IC50) lay in the range of 1000 to 3000 nM.

Turning to `CCOc1nc(N2CC(NC)C2)ncc1C(=O)Nc1cc(F)c2nn(C)cc2c1` [Compound 254, 4-ethoxy-N-(7-fluoro-2-methyl-2H-indazol-5-yl)-2-(3-(methylamino)azetidin-1-yl)pyrimidine-5-carboxamide hydrochloride], the IC50 was > 3000 nM.

Take `CCOc1nc(N2CC(C)CNC(C)C2)ncc1C(=O)Nc1cc(F)c2nc(C)cn2c1` (centres unmarked) [Compound 131]: the IC50 lay in the range of 500 to 1000 nM.

In the case of `CCOc1nc(N2CCC(CN(C)C)CC2)ncc1C(=O)Nc1cc(F)c2nc(C)cn2c1` [Compound 300, 2-(4-((dimethylamino)methyl)piperidin-1-yl)-4-ethoxy-N-(8-fluoro-2-methylimidazo[1,2-a]pyridin-6-yl)pyrimidine-5-carboxamide formate], the IC50 lay within 1000 to 3000 nM.

As to `CCOc1nc(N2CCNCC2)ncc1C(=O)Nc1cc(OC)c2nn(C)cc2c1` [Compound 273, 4-ethoxy-N-(7-methoxy-2-methyl-2H-indazol-5-yl)-2-(piperazin-1-yl)pyrimidine-5-carboxamide formate], the IC50 is 1000 to 3000 nM.

Regarding `CCOc1nc(N(C)C[C@H]2[C@@H]3CNC[C@@H]32)ncc1C(=O)Nc1cc(F)c2nc(C)cn2c1` [Compound 117], the IC50 lay in the range of 1000 to 3000 nM.

`CCOc1nc(N2CCC(CNC)CC2)ncc1C(=O)Nc1cn2cc(C)nc2c(C)n1` [Compound 76]: the IC50 is < 500 nM.

As for `CCOc1nc(N2CCC3(CCNC3)CC2)ncc1C(=O)Nc1cn2cc(C)nc2c(C)n1` [Compound 89], the IC50 is > 3000 nM.

Take `CCOc1nc(N2CCC(CNC)C2)ncc1C(=O)Nc1cc(F)c2nc(C)cn2c1` (centres unmarked) [Compound 211]: the half-inhibitory concentration (IC50) is < 500 nM.

Regarding `CCOc1nc(N2CC[C@H]3CN[C@H]3C2)ncc1C(=O)Nc1cc(F)c2nc(C)cn2c1` (racemic) [Compound 169], the IC50 was in the range of 500 to 1000 nM.

As for `CCOc1nc(N2CC[C@H](NC)C2)ncc1C(=O)Nc1cc(F)c2nc(C)cn2c1` [Compound 261, (S)-4-ethoxy-N-(8-fluoro-2-methylimidazo[1,2-a]pyridin-6-yl)-2-(3-(methylamino)pyrrolidin-1-yl)pyrimidine-5-carboxamide formate], the IC50 was < 500 nM.

In the case of `CCOc1nc(N(C)[C@@H]2CNC[C@H]2O)ncc1C(=O)Nc1cc(F)c2nc(C)cn2c1` (racemic) [Compound 174], the IC50 was 1000 to 3000 nM.

Turning to `CCOc1nc(N2CC[C@@H]3NCCC[C@@H]3C2)ncc1C(=O)Nc1cc(F)c2nc(C)cn2c1` (racemic) [Compound 139], the IC50 was < 500 nM.

As to `CCOc1nc(N2CC3CNC(C3)C2)ncc1C(=O)Nc1cn2cc(C)nc2c(C)n1` (centres unmarked) [Compound 85], the IC50 was > 3000 nM.

Take `CCOc1nc(N2CC[C@@H]3CNC[C@@H]32)ncc1C(=O)Nc1cc(F)c2nc(C)cn2c1` (racemic) [Compound 209]: the IC50 was < 500 nM.

For the molecule `CCOc1nc(N2CC3CCC2C2CNCC32)ncc1C(=O)Nc1cn2cc(C)nc2c(C)n1` (centres unmarked) [Compound 97], the IC50 lay in the range of 1000 to 3000 nM.

The experiment is the same for the next values; noted with them: Homo sapiens, HEK293, read-out: PMS1 IC50 (nM).
As for `CCOc1nc(N(CC)C2CCNCC2)ncc1C(=O)Nc1cc(OC)c2nc(C)cn2c1` [Compound 260, 4-ethoxy-2-(ethyl(piperidin-4-yl)amino)-N-(8-methoxy-2-methylimidazo[1,2-a]pyridin-6-yl)pyrimidine-5-carboxamide formate], the concentration for half-maximal inhibition (IC50) was < 500 nM.

The same experiment, now with this note: Homo sapiens; at 5 μM; PMS1 mini-gene firefly luciferase reporter in HEK293 cells; read-out: PMS1% Effect at 5 μM.
As for `CCOc1nc(N2CCNC3CC32)ncc1C(=O)Nc1cn2cc(C)nc2c(C)n1` (centres unmarked) [Compound 47], the activation at 5 µM was < 50%.

In the case of `CCOc1nc(N2CCNC(CC(F)F)C2)ncc1C(=O)Nc1cc(F)c2nc(C)cn2c1` (single isomer, unassigned) [Compound 309], the activation at 5 µM lay within 50 to 75%.

In the case of `CCOc1nc(N2CC[C@@H](NC)C2)ncc1C(=O)Nc1cc(F)c2nc(C)cn2c1` (single isomer, unassigned) [Compound 311, hydrochloride], the activation at 5 µM is > 75%.

In the case of `CCOc1nc(C2=CCNC2)ncc1C(=O)Nc1cc(F)c2nc(C)cn2c1` [Compound 315, 2-(2,5-dihydro-1H-pyrrol-3-yl)-4-ethoxy-N-8-fluoro-2-methylimidazo[1,2-a]-pyridin-6-ylpyrimidine-5-carboxamide], the activation at 5 µM is > 75%.

For the molecule `CCOc1nc(N2CCNCC2C(C)C)ncc1C(=O)Nc1cc(F)c2nc(C)cn2c1` (centres unmarked) [Compound 227], the activation at 5 µM is < 50%.
